Results reported in patent publication US11319289B2, “5-hydroxy pyridine-based compound for use as P2X1 and P2X3 receptor antagonist and pharmaceutical composition comprising same” (GWANGJU INSTITUTE OF SCIENCE AND TECHNOLOGY, priority 2017, dated 2022).

Legend:
CYP2C9 = target: T1, CYP2C9 (Homo sapiens, UniProt P11712); assay: CYP inhibition assay (Vivid fluorometric), 2C9; assay type: biochemical; conditions: human, recombinant human CYP2C9, pH 8; 1 μM in Table 5; read-out: CYP450 inhibition, 2C9 isozyme
T1 construct: purchased Invitrogen
Procedure: CYP450 (1A2, 2C9, 3A4) enzyme assay was performed by a fluorometric assay using a Vivid® CYP450 screening kit (Invitrogen, USA, CA) in a 96-well black plate according to manufacturer's instructions with some modifications. The assay was performed at room temperature, and the final assay volume was 100 μL. […]
A master pre-mixture (enzyme (0.5 nmol recombinant human CYP450 enzyme)/NADP regeneration solution (333 mM glucose-6-phosphate dissolved, 30 U/mL glucose-6-phosphate dehydrogenase in 100 mM KH2PO4 solution at pH 8.0)) was prepared as a CYP450 reaction buffer (200 mM KH2PO4, pH 8.0). The master pre-mixture was added to each well of the 96 well plate, followed by the vehicle DMSO (control) and test compounds, and the mixture was preincubated for 10 minutes in the plate for background reading. Subsequently, the enzyme reaction was immediately initiated through the addition of CYP450 substrate/NADP^+ mixture. After incubation for 40 minutes, the fluorescence of the product was measured with a CHAMELEON™ multi-technology plate reader (2C9, 3A4: excitation wavelength of 530 nm and emission wavelength of 590 nm, 1A2: excitation wavelength of 415 nm and emission wavelength of 460 nm). The effect of the test compounds on CYP450 (1A2, 2C9, 3A4) was expressed as the percentage of enzyme activity.

rats = assay: Behavioral test (righting, placing-stepping, pinna and corneal reflexes); assay type: in vivo, rat; conditions: maximum dose, intrathecal or intravenous administration
Procedure: 4-1. Behavioral Efficacy Test Method
Additional rats received the highest doses of drugs used to evaluate behavioral changes at 5, 10, 20, 30, 40, 50, and 60 min after intrathecal or intravenous administration to caudal vein. Motor functions were examined using the righting and placing-stepping reflexes. The righting reflex was evaluated by an immediate coordinated twisting of the body to an upright position when placing the rat horizontally with its back on the table. The placing-stepping reflex was induced by drawing the dorsum of hind paw across the edge of the table. Rats normally attempt to put their paws forward into a position for walking. Pinna and corneal reflexes were also assessed and judged as present or absent. Other abnormal behaviors, such as serpentine movement or tremors, were also evaluated.

[1] = Metabolic stability in microsomes, mouse; assay type: in vitro ADME; conditions: 30 min
[2] = target: T2, human P2X7 receptor (hP2X7) (Homo sapiens, UniProt Q99572); assay: Ethidium bromide accumulation assay in hP2X7-expressing HEK293 cells; assay type: cell-based; conditions: 10 μM compound with BzATP
T2 construct: expressed in transfected cells
T2 sequence (Q99572 1-595): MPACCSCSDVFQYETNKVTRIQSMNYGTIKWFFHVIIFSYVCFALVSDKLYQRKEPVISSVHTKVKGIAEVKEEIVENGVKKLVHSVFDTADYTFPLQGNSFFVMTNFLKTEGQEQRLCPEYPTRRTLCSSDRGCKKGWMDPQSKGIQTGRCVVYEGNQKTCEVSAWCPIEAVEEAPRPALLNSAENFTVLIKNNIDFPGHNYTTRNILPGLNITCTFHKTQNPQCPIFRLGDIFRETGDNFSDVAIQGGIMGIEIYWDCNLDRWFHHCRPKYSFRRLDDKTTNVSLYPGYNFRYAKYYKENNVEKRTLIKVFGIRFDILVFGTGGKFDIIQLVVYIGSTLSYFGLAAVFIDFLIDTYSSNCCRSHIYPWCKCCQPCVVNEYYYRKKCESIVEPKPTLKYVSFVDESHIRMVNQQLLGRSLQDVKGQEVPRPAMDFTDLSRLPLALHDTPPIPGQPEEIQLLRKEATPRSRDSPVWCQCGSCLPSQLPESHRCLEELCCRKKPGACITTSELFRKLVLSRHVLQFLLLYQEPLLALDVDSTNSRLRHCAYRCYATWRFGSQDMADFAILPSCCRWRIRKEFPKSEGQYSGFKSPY
Procedure: 1-2. Ethidium Bromide Accumulation Assay in hP2X-Expressing HEK293 Cells
HEK293 cells that are stably transfected with the human P2X7 receptor (P2X7R) were kept under a humidified atmosphere of 5% CO2 at 37° C. in DMEM supplemented with 10% (v/v) FBS, 2 mM L-glutamine and antibiotics (50 U/mL penicillin and 50 μg/ml streptomycin). BzATP-induced pore formation was measured using a fluorescence plate reader by measuring cellular absorption of ethidium in the hP2X7-expressing HEK293 cells. The hP2X7-expressing HEK293 cells were washed once with an appropriate assay buffer, and the buffer was also removed before subsequent analysis. All studies were performed at room temperature and the final assay volume was 100 μL. The cells were resuspended at 2.5×10^6 cells/mL in assay buffers consisting of 10 mM HEPES, 5 mM N-methyl-D-glucamine, 5.6 mM KCl, 10 mM D-glucose and 0.5 mM CaCl2 (pH 7.4) and supplemented with 280 mM sucrose or 140 mM NaCl.
In order to determine the antagonistic activity of the 5-hydroxyl-pyridine derivatives of the present invention and the reference compound (AZD9056), these compounds were added to the cells at a concentration of 10 μM with BzATP without pre-incubation. The cells were incubated for 2 hours under a humidified atmosphere of 5% CO2 at 37° C., and the absorption of ethidium dye was observed by measuring fluorescence with a Bio-Tek instrument FL600 fluorescent plate reader (excitation wavelength of 530 nm and emission wavelength of 590 nm). The results are expressed as a percentage relative to the maximum cumulative amount of ethidium bromide when stimulated with BzATP alone.
In order to investigate the structure-activity relationship (SAR) of the compounds synthesized in the present invention, the antagonistic activity was evaluated by a two-electrode voltage clamp (TEVC) assay in Xenopus oocytes expressing the recombinant mP2X1 or hP2X3, respectively. The hP2X7R antagonistic activity was assessed using an ethidium ion accumulation assay in human HEK293 cells stably expressing the recombinant human P2X7R.

T1 sequence (P11712 whole entry): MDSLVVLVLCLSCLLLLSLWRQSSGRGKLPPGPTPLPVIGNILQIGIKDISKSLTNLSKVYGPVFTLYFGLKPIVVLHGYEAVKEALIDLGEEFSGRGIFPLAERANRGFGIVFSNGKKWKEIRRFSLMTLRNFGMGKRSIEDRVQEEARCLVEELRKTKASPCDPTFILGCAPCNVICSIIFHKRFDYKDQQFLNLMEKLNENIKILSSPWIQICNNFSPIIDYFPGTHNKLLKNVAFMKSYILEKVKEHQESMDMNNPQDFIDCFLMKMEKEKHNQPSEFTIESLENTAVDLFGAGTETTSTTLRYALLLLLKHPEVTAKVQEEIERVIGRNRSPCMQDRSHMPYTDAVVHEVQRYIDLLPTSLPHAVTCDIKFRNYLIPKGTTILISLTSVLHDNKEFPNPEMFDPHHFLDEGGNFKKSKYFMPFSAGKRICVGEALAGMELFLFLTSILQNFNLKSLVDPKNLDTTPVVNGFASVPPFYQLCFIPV

| Compound | inhibition at 40 min, 1 µM (CYP2C9) [%] | abnormal behavior changes (rats) | pinna and corneal reflexes (rats) | righting and position-stepping reflexes (rats) | Metabolic stability, microsomes, Mouse [1] [% remaining after 30 min] | hP2X7 % inhibition of ethidium bromide accumulation [2] |
| --- | --- | --- | --- | --- | --- | --- |
| CCCc1nc(Cc2cccc(Oc3ccccc3)c2)c(C)c(C(=O)OC)c1O [Compound 28, Methyl 3-hydroxy-5-methyl-6-(3-phenoxybenzyl)-2-propylisonicotinate] | 28 ± 3 | no obvious abnormal behavior changes were observed | present | normal | 35 |  |
| CCCc1nc(Cc2cccc(Oc3ccccc3)c2)c(C)c(C(=O)O)c1O [Compound 29, 3-Hydroxy-5-methyl-6-(3-phenoxybenzyl)-2-propylisonicotinic acid] | 26 ± 2 | no obvious abnormal behavior changes were observed | present | normal | 2 | Inactive |
| CCCc1nc(CCc2ccc(OC)cc2)c(C(=O)O)c(C(=O)O)c1O [Compound 13d, 5-Hydroxy-2-(4-methoxyphenethyl)-6-propylpyridine-3,4-dicarboxylic acid] |  |  |  |  |  | inactive |
